Results published in the supplement of paper PMC7695840.
Several values for one entry are separate records, joined by “and”; a condition that tells them apart may be missing. Equal entries are not always repeated. Structures can show the parent of a compound that is named as a salt.

How the values were obtained:
[1] = tested on: Staphylococcus aureus MW2 delta-mecA (mecA-); experiment: IC50 (growth, competition assay); conditions: cefoxitin: subinhibitory
Procedure, shortened: (§1)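 Two fluorescent S. aureus MW2 strains, one carrying and one lacking the resistance gene, were pre-induced, mixed 1:1 and grown unshaken in LB in 1536-well plates for 20 h at 37 °C and 90% humidity with a subinhibitory drug dose set each day. Compounds were tested on five- or nine-point 2-fold gradients in two dye-swapped replicates. DsRed (540/590) and GFP (485/520) signals were scaled per plate between the medians of single-strain controls, and No Treatment was then set to 0.5. For each strain, IC50 was taken as the dose that halved the No Treatment signal, or else the maximal signal.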

[2] = tested on: Staphylococcus aureus MW2 (mecA+); experiment: IC50 (growth, competition assay); conditions: cefoxitin: subinhibitory
Procedure, shortened: as §1

Row | Compound | IC50 ([1]; fluorescent label: DsRed) | IC50 ([1]; fluorescent label: GFP) [µM] | IC50 ([2]; fluorescent label: DsRed) | IC50 ([2]; fluorescent label: GFP)
1 | O=c1cc(O)cc(/C=C/c2ccc(O)c(O)c2)o1 [Hispidin] | 50.9 µM | 59.1 | 58.9 µM | 54.8 µM
2 | O=C1OC(c2ccc(O)cc2)(c2ccc(O)cc2)c2ccccc21 [EXLAX] | 49.7 µM | 59 | 112 µM | 52.1 µM
3 | CCCCCCCCCCCCCCCC[N+](C)(C)CCN(Cc1ccc(OC)cc1)c1ncccn1 [THONZIDE] | < 9.85 µM | < 9.85 | < 9.85 µM | 14.9 µM
4 | COC(=O)C1=C(C)NC(C)=C(C(=O)OCC(C)C)C1c1ccccc1[N+](=O)[O-] (stereo not given) [Nisoldipine] | 12.7 µM | 7.55 | 63.1 µM | 99.2 µM
5 | C[C@@H](O[C@H]1OCCN(Cc2nn(P(=O)(O)O)c(=O)[nH]2)[C@H]1c1ccc(F)cc1)c1cc(C(F)(F)F)cc(C(F)(F)F)c1 [Fosaprepitant dimeglumine] | 17.2 µM | 31.6 | 53.4 µM | 49.3 µM
6 | Cc1coc2c1C(=O)C(=O)c1c-2ccc2c1CCCC2(C)C [Tanshinone IIA (Tanshinone B)] | 3.7 µM and 13.9 µM |  | 7.87 µM and 35.3 µM | 41.1 µM and 32.8 µM
7 | Cc1cc(F)c(Nc2ncnc3cc(OCc4ccccc4)ccc23)cc1O | 139 µM | > 150 | > 150 µM | 138 µM
8 | O=C(O)c1ccc(N2C(=O)/C(=C\c3ccc(-c4ccc([N+](=O)[O-])cc4)o3)C=C2c2ccccc2)cc1 [4E1RCat] | 18 µM | < 9.85 | 54.5 µM | 78.7 µM
9 | Cn1nnnc1SCC1=C(C(=O)O)N2C(=O)[C@@H](NC(=O)[C@H](O)c3ccccc3)[C@H]2SC1 [CEFAMANDOLE SODIUM] | < 9.85 µM | < 9.85 | 53.2 µM | 52.5 µM
10 | N[C@@H](Cc1cc(I)c(Oc2ccc(O)c(I)c2)c(I)c1)C(=O)O [CYTOMEL] | 14 µM | < 9.85 | 60.3 µM | 49.1 µM
11 | CCOC(=O)C1=C(C)NC(C)=C(C(=O)OC)C1c1cccc(Cl)c1Cl (stereo not given) [PLENDIL] | < 9.85 µM | < 9.85 | 29.9 µM | 30 µM
12 | COC1=CC(=O)C(O)=C/C1=C\C=C\c1ccccc1 [OBTUSAQUINONE] | < 9.85 µM | < 9.85 | < 9.85 µM | < 9.85 µM
13 | CCCCC(CC)CN=C(N)N=C(N)NCCCCCCNC(N)=NC(N)=NCC(CC)CCCC (stereo not given) [ALEXIDINE HYDROCHLORIDE] | < 9.85 µM | < 9.85 | < 9.85 µM | < 9.85 µM
14 | CO[C@@H]1[C@@H](OC(N)=O)[C@@H](O)[C@H](Oc2ccc3c(O)c(NC(=O)c4ccc(O)c(CC=C(C)C)c4)c(=O)oc3c2C)OC1(C)C [ALBAMYCIN] | < 9.85 µM | < 9.85 | < 9.85 µM | < 9.85 µM
15 | CN1CCN(C2Cc3ccccc3Sc3ccc(Cl)cc32)CC1 (stereo not given) [(?)-Octoclothepin maleate] | < 9.85 µM | 29.3 | 73.8 µM | 61.8 µM
16 | COc1ccc2c(c1)OC[C@@H](Cc1ccc(OC)c(OC)c1)[C@H]2O [TETRAHYDROSAPPANONE A TRIMETHYL ETHER] | > 150 µM | > 150 | > 150 µM | > 150 µM
17 | CC[C@H](c1ccc(O)cc1)[C@@H](CC)c1ccc(O)cc1 [HEXESTROL] | < 9.85 µM | < 9.85 | < 9.85 µM | 29.7 µM
18 | COc1cc([C@@H]2c3cc4c(cc3[C@@H](O[C@@H]3O[C@@H]5CO[C@@H](C)O[C@H]5[C@H](O)[C@H]3O)[C@H]3COC(=O)[C@H]23)OCO4)cc(OC)c1O [Etoposide] | < 9.85 µM | < 9.85 | 14.9 µM | 14.9 µM
19 | CC(C)c1c(O)ccc2c1CC[C@H]1[C@@](C)(CO)CCC[C@]21C [19-HYDROXYTOTAROL] | 107 µM | 65.8 | 77.4 µM | 111 µM
20 | CC[C@H]1OC(=O)[C@H](C)[C@@H](O[C@H]2C[C@@](C)(OC)[C@@H](O)[C@H](C)O2)[C@H](C)[C@@H](O[C@@H]2O[C@H](C)C[C@H](N(C)C)[C@H]2O)[C@](C)(O)C[C@@H](C)CN(C)[C@H](C)[C@@H](O)[C@]1(C)O [ZITHROMAX] | < 9.85 µM | < 9.85 | < 9.85 µM | 15.7 µM
21 | C[C@@H]1CN(c2c(F)c(N)c3c(=O)c(C(=O)O)cn(C4CC4)c3c2F)C[C@H](C)N1 [Sparfloxacin] | < 0.498 µM | < 0.498 | 0.78 µM | 0.746 µM
22 | O=C(O)c1cn(-c2ccc(F)cc2)c2cc(N3CCNCC3)c(F)cc2c1=O [SARAFLOX] | < 9.85 µM | < 9.85 | < 9.85 µM | < 9.85 µM
23 | [O-][n+]1ccccc1[S-].[O-][n+]1ccccc1[S-].[Zn+2] [Zinc Pyrithione] | < 9.85 µM | < 9.85 | < 9.85 µM | < 9.85 µM
24 | CCCCCCCCCCCCCCCC[N+](C)(C)C [CETAB] | < 9.85 µM | < 9.85 | < 9.85 µM | < 9.85 µM
25 | O=C1C=C2C(=CCOC2O)O1 (stereo not given) [PATULIN] | < 9.85 µM | < 9.85 | 18.9 µM | 26.9 µM
26 | COc1ccc(Cl)cc1NC(=O)Nc1cc(C)nc2ccccc12 [PQ 401] | 10.6 µM | 12.3 | 24.3 µM | 17.9 µM
27 | CN1CCN(CCCN2c3ccccc3Sc3ccc(C(F)(F)F)cc32)CC1 [Trifluoperazine dihydrochloride] | 15.7 µM | 16.5 | 51.1 µM | 52.4 µM
28 | CS(=O)(=O)c1ccc([C@@H](O)[C@@H](CF)NC(=O)C(Cl)Cl)cc1 [NUFLOR] | < 9.85 µM | < 9.85 | < 9.85 µM | < 9.85 µM
29 | CO[C@H]1/C=C/O[C@@]2(C)Oc3c(C)c(O)c4c(O)c(c5c(nc6cc(C)ccn65)c4c3C2=O)NC(=O)/C(C)=C\C=C\[C@H](C)[C@H](O)[C@@H](C)[C@@H](O)[C@@H](C)[C@H](OC(C)=O)[C@@H]1C [XIFAXAN] | < 9.85 µM | < 9.85 | < 9.85 µM | < 9.85 µM
